Assay in all cases: microbe, parasite or virus in culture
What all share (format): cell-based, Mycobacterium tuberculosis

Assay [1] has as its system Mtb strain resistant to Ethambutol ATCC 35837. The note with it: Mycobacterium tuberculosis, ATCC35837, read-out: Activity against Mtb strain resistant to Ethambutol ATCC 35837.
The test system of assay [2] is Mtb strain resistant to P-aminosalicyclic acid ATCC 35821. The conditions noted are these: Mycobacterium tuberculosis, ATCC35821, read-out: Activity against Mtb strain resistant to P-aminosalicyclic acid ATCC 35821.
The subject of assay [3] is Mtb strain resistant to Isoniazid ATCC 35822. The conditions noted are these: Mycobacterium tuberculosis, ATCC35822, read-out: Activity against Mtb strain resistant to Isoniazid ATCC 35822.
For assay [4], the system named is Mtb strain resistant to Ethionamide ATCC 35830. The conditions noted are these: Mycobacterium tuberculosis, ATCC35830, read-out: Activity against Mtb strain resistant to Ethionamide ATCC 35830.
Assay [5] relates to Mtb strain resistant to Kanamycin ATCC 35827. The conditions noted are these: Mycobacterium tuberculosis, ATCC35827, read-out: Activity against Mtb strain resistant to Kanamycin ATCC 35827.
Assay [6] has as its system Mtb strain resistant to Streptomycin ATCC 35820. The note with it: Mycobacterium tuberculosis, ATCC35820, read-out: Activity against Mtb strain resistant to Streptomycin ATCC 35820.

Each structure is given as a SMILES string. ≈ marks a conversion by molar mass, not a printed value.

As for `CS(=O)(=O)N1CCN(c2n[n+]([O-])c3cc4c(cc3[n+]2[O-])CCC4)CC1` [SRI-012568], the MIC amounted to 2.5 µg/mL (≈ 6.84 µM) in assay [1]; 2.5 µg/mL (≈ 6.84 µM) in assay [2]; 2.5 µg/mL (≈ 6.84 µM) in assay [3]; 0.62 µg/mL (≈ 1.7 µM) in assay [4]; 2.5 µg/mL (≈ 6.84 µM) in assay [5]; 2.5 µg/mL (≈ 6.84 µM) in assay [6].

(Values after patent US9663478B2, “Benzotriazine oxides as drugs targeting Mycobacterium tuberculosis” (priority 2011, dated 2017).)
